# Values joined by “and” are separate entries in the source; they are usually repeats but may differ in a detail not shown here. Identical values can stand only once. Like-named read-outs stand apart in the source and are kept apart here.
# Assays:
# [1] = molecular target: HLA-A*0201 (Homo sapiens, UniProt P04439, D140Y/D185E/D98H/E176V/E277Q/G131W/G231S/I119V/I121R/I166T/I218V/L300P/L318F/N151K/N90K/P208A/P217A/Q86G/Q94H/R138H/R169H/T345S); test: REVEAL MHC molecule binding assay (ProImmune)
# [2] = system: autologous responder cells (monocyte-depleted PBMC) from HLA-A*0201-negative donors; test: Induction of pentamer positive CD8+ T cells by peptide-pulsed HLA-A*0201-transfected moDC (Example 8); type: cell-based, human; details: for Day 12 % pent+/CD8+: day 12 of co-culture; for Day 19 % pent+/CD8+: day 19 of co-culture, after restimulation; for Day 12 Donors / Day 19 Donors: donors with positive response / donors tested
# Method: MoDC transfected with HLA-A*0201 mRNA were harvested 18 hours after transfection and resuspended in 1-2 ml of serum-free DC-medium containing 50 μg/ml peptide, such as MART-1 or peptide #19. The cells were incubated at 37° C., 5% CO2 for 4 hours, then washed once in serum-free RPMI.
# Stimulator and responder cells were seeded at a stimulator to responder (S:R) ratio of 1:10, with 3.0×10^6 responders per well in serum-free DC medium containing 10 ng/ml IL-7 (PeproTech EC Ltd.), 50 pg/ml IL-12 (PeproTech EC Ltd.), and PPD at 1 μg/ml.
# On day 12 the responder cells were harvested and analyzed for the presence of pentamer positive cells. The cells were either sorted or restimulated.
# Restimulation was done with autologous EBV-LCL transfected with HLA-A*0201 mRNA 12-24 hours prior to stimulation, harvested and resuspended in 1-2 ml of serum-free X-Vivo 20 (Cambrex) containing the same peptide as added on day 0 at 20 μg/ml, and incubated for 4 hours at 37° C., 5% CO2. Following incubation, the EBV-LCL were washed once in serum-free RPMI.
# From day 12 of co-culture with stimulator cells, the responders were harvested, counted and analyzed for the presence of pentamer positive cells weekly. The responder cells were either restimulated, as described above, or the pentamer positive cells were sorted and expanded as described below.
# Monocyte-derived dendritic cells (moDC) from HLA-A*0201-negative donors were transfected with HLA-A*0201 mRNA after maturation. 18-24 hours post-transfection the cells were pulsed with the peptides indicated in Table 2 for four hours, before co-culturing them with autologous responder cells (monocyte-depleted PBMC). On day 12 and day 19 and in some cases at day 26 of co-culture, the cells were harvested, stained with relevant peptide-MHC-pentamer and analyzed by flow cytometry. The percentage of pentamer positive cells was calculated by dividing the number of pentamer positive cells by the number of CD8+ cells. On day 12 and day 19, the cells were restimulated with autologous EBV-cells that were transfected with HLA-A*0201 mRNA and loaded for four hours with the relevant peptides indicated in Table 2.
# [3] = system: CD8+ T cells from HLA-A*0201 negative donors; test: Induction of allo-restricted pentamer+ T cells by peptide-pulsed A2-moDC (Example 9); type: cell-based, human; details: three donors respectively, 19 days of culture
# Method: Mature moDCs were harvested 18 hours after transfection with HLA-A*0201 mRNA, pulsed with 50 μg/ml MART-1 peptide or CD339-17 peptide for 4 hours, washed and co-cultured with thawed, non-adherent cells (see above) at a ratio of 1:10 in CellGro DC medium in the presence of 10 ng/ml IL-7 (PeproTech EC Ltd.) and 50 pg/ml IL-12 (PeproTech EC Ltd.), with the addition of 10 ng/ml IL-7 on day 7. Cells were harvested day 12 and analyzed for the presence of pentamer^+ cells. The co-cultures stimulated with the CD339-17 peptide were re-stimulated on day 12 with HLA-A*0201 transfected autologous EBV-LCL for an additional 7 days before harvest.
# (§1) Co-cultured cells were harvested and stained with A2/MART-1 pentamer or A2/CD33 pentamer, fluorotag and anti-CD8 according to the manufacturers' instructions. Sorting was performed by flow cytometry (FACS Aria Cell sorter, BD Biosciences, San Jose, Calif.) or by magnetic beads to a purity of >98%. Pentamer^+ cells labelled with fluorotag conjugated to PE were isolated using MACS Anti-PE MicroBeads (Miltenyi Biotec, Bergisch Gladbach, Germany) followed by separation over two subsequent MACS MS Columns (Miltenyi Biotec).
# [4] = system: CD8+ T cells from HLA-A*0201 negative donors; test: Induction of A2/CD20 pentamer+ T cells by HLA-A*0201-transfected peptide-pulsed moDC (Example 10); type: cell-based, human
# Method: Mature moDCs were harvested 18 hours after transfection with HLA-A*0201 mRNA (HLA-A*0201 negative donors), or left untransfected (HLA-A*0201 positive donors), pulsed with 50 μg/ml peptide for 4 hours, irradiated (25Gy), washed and co-cultured with thawed, autologous, non-adherent cells at a ratio of 1:10 in CeliGro DC medium in the presence of 10 ng/ml IL-7 (PeproTech EC Ltd.), 50 pg/ml IL-12 (PeproTech EC Ltd.) and 1 μg/ml purified protein derivative-1 (gift from Prof. L. Sollid's lab, Rikshospitalet, Oslo) with the addition of 10 ng/ml IL-7 on day 7. Cells were analyzed for the presence of pentamer^+ cells, harvested and re-stimulated on day 12 with HLA-A*0201-transfected, peptide-pulsed autologous EBV-LCL. Cells were co-cultured in X-vivo 20 (Lonza, Verviers, Belgium) with 5% pooled human serum, 10 U/ml IL-2 (R&D systems, Minneapolis, Minn.) was added on day 14 and the cells harvested for cell sorting day 19.
# as §1, with “Harvested” for “Co-cultured”, “were” for “were harvested and”, “A2/CD20” for “A2/MART-1 pentamer or A2/CD33”, “anti-PE” for “Anti-PE”
# [5] = system: myelo-monocytic leukemia cell line THP-1; test: IFN-γ production and CD107a/b mobilization, peptide-loaded targets; type: cell-based, human; details: THP-1 loaded with peptide and washed, p=0.016, n=4
# [6] = day 26 per footnote c, printed in Day 19 column
Substance,Day 12 % pent+/CD8+ [2],Day 19 % pent+/CD8+ [2],Day 12 Donors [2],Day 19 Donors [2],further results
FLYGVILTV (homo sapiens) [Peptide 131],–,–,–,–,% Pass/fail control [1]: 257.0%
"FVANAIIHL (homo sapiens) [Peptide 111, from CD52]",0%,0%,0/2,0/2,–
"YLGYTVTWL (homo sapiens) [Peptide 93, from CD11a]",0.02%,0.06%,1/2,2/2,–
"FLDCQIHRV (homo sapiens) [Peptide 7, from CD127]",0%,0%,0/2,0/2,–
"KLGGDLLRA (homo sapiens) [Peptide 129, from CD18]",0%,0%,0/2,0/2,–
"LLLTISLLV (homo sapiens) [Peptide 81, from CD52]",0%,0.03%,0/2,1/2,–
"ILFAFVSSV (homo sapiens) [Peptide 25, from FLT3]",0%,0%,1/2,0/2,–
"YLHVALDLL (homo sapiens) [Peptide 107, from MPO]",0%,0.01%,0/2,1/2,–
"LIQPFMFRL (homo sapiens) [Peptide 84, from MPO]",0%,0%,0/5,0/4,–
"KIVEWDWKI (homo sapiens) [Peptide 109, from CD48]",0.03%,0.05%,1/2,1/2,–
"ALAVISFLL (homo sapiens) [Peptide 114, from CD7]",0%,0%,0/2,0/2,–
"LLLPLLLAL (homo sapiens) [Peptide 28, from CD7]",0.01%,0.19%,1/2,1/2,–
"LLFLTPMEV (homo sapiens) [Peptide 108, from CD19]",0.03%,0.09%,1/2,1/2,–
"SLWRRPFNV (homo sapiens) [Peptide 22, from MPO]",0%,0.09%,0/2,1/2,–
"FLLLTISLL (homo sapiens) [Peptide 88, from CD52]",0%,0.08% and 0%,0/2 and 0/3,2/3 and 0/2,–
"SVDPRIANV [139] (SLDPRIANV; homo sapiens) [Peptide 139, modified peptide, MPO]",–,–,–,–,% Pass/fail control ([1]; level of binding relative to pass/fail control binder designated 100%): 231.5%
"CD339-17: peptide derived from the CD33 antigen, amino acid sequence 9-17, HLA-A*0201-binding candidate (LLWAGALAM; UniProt P20138 9-17, looked up, fragment)",–,–,–,–,frequencies of pentamer+ cells [3]: 0.13% and 0.32% and 0.55%
"SMFHVTLKI (homo sapiens) [Peptide 128, from CLL-1]",–,–,–,–,"% pent+/CD8+ (results d26) [2, 6]: 0.08%; Donors (results d26) [2, 6]: 1/3"
ALYDKTKRI (homo sapiens) [Peptide 115],0%,0%,0/2,0/2,–
"SMLDDLRNV (homo sapiens) [Peptide 24, from CD18]",0%,0.05%,0/2,1/2,–
"KLMSPKLYV (homo sapiens) [Peptide 55, from CD19]",0.03%,0.05%,1/2,1/2,–
"LLWAGALAM (homo sapiens) [Peptide 86, from CD33]",0.14%,0.35%,2/4,4/6,–
"LLQRPGLQL (homo sapiens) [Peptide 126, from CD64]",0.01%,0.06%,1/2,1/2,–
"LVAPRFLEV (homo sapiens) [Peptide 85, from CD50]",0.13%,0.30%,1/4,2/5,–
"VLWHWLLRT (homo sapiens) [Peptide 105, from CD19]",0%,0.19%,0/2,4/6,–
"ALPAALAVI (homo sapiens) [Peptide 127, from CD7]",0%,0.04%,0/2,1/2,–
"SLFLGILSV (homo sapiens) [Peptide 19, from CD20]",–,–,–,–,"donors with positive cells ([4]; day 12): 5 of 6; median frequency of pentamer positive cells of CD8+ T cells ([4]; day 12): 0.19%; range of frequency of pentamer positive cells of CD8+ T cells ([4]; day 12): 0-0.31%; donors with pentamer positive cells ([4]; day 19): 6/6; median frequency of pentamer positive cells of CD8+ T cells ([4]; day 19, after re-stimulation): 0.57%; range of frequency of pentamer positive cells of CD8+ T cells ([4]; day 19, after re-stimulation): 0.12-2.79%; peptide concentration at which increase in frequency of activated T cells reached statistical significance [5]: 100 nM"
"RLYQFLLDL (homo sapiens) [Peptide 66, from PU.1]",0%,0.03%,0/2,1/2,–
"LMGTLIAKV (homo sapiens) [Peptide 83, from HA-1]",0%,0%,0/2,0/2,–

# Reference: patent publication US20110142842A1, “POLYPEPTIDES” (Medinnova AS, priority 2007, published 2011)
